How the values were obtained:
Capivasertib = compound: C1CN(CCC1(C(=O)N[C@@H](CCO)C2=CC=C(C=C2)Cl)N)C3=NC=NC4=C3C=CN4 [Capivasertib]; settings: max 10 µM
Procedure, shortened: (§1)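 In 1536-well plates, cancer cell lines in 7.5 μl DMEM/F12 or RPMI with 10% FBS spent 24 hours at 37°C and 5% CO2 and were then dosed for 72 hours with final DMSO typically 0.2%. Viability was read by CellTiter-Glo 2.0 luminescence and scaled between blank-well and DMSO-well means. The single-agent IC50 was fitted from dose responses using a logistic curve in a non-linear mixed effects model, and that logistic curve had two parameters.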

AZD1775 = compound: C=CCn1c(=O)c2cnc(Nc3ccc(N4CCN(C)CC4)cc3)nc2n1-c1cccc(C(C)(C)O)n1 [AZD1775]; settings: max 3 µM
Procedure, shortened: as §1

Trametinib = compound: CC(=O)Nc1cccc(-n2c(=O)n(C3CC3)c(=O)c3c(Nc4ccc(I)cc4F)n(C)c(=O)c(C)c32)c1 [Trametinib]; settings: max 1 µM
Procedure, shortened: as §1

Palbociclib = compound: CC(=O)c1c(C)c2cnc(Nc3ccc(N4CCNCC4)cn3)nc2n(C2CCCC2)c1=O [Palbociclib]; settings: max 10 µM
Procedure, shortened: as §1

AZD1390 = compound: CC(C)n1c(=O)n(C)c2cnc3cc(F)c(-c4ccc(OCCCN5CCCCC5)nc4)cc3c21 [AZD1390]; settings: max 0.3 µM
Procedure, shortened: as §1

Venetoclax = compound: CC1(C)CCC(CN2CCN(c3ccc(C(=O)NS(=O)(=O)c4ccc(NCC5CCOCC5)c([N+](=O)[O-])c4)c(Oc4cnc5[nH]ccc5c4)c3)CC2)=C(c2ccc(Cl)cc2)C1 [Venetoclax]; settings: max 1 µM
Procedure, shortened: as §1

Dasatinib = compound: CC1=C(C(=CC=C1)Cl)NC(=O)C2=CN=C(S2)NC3=CC(=NC(=N3)C)N4CCN(CC4)CCO [Dasatinib]; settings: max 2 µM
Procedure, shortened: as §1

SG3199 = compound: CC1=CN2[C@@H](C1)C=NC3=CC(=C(C=C3C2=O)OC)OCCCCCOC4=C(C=C5C(=C4)N=C[C@@H]6CC(=CN6C5=O)C)OC [SG3199]; settings: max 0.001 µM
Procedure, shortened: as §1

AZD2811 = compound: CCN(CCO)CCCOc1ccc2c(Nc3cc(CC(=O)Nc4cccc(F)c4)[nH]n3)ncnc2c1 [AZD2811]; settings: max 1 µM
Procedure, shortened: as §1

SN-38 = compound: CCc1c2c(nc3ccc(O)cc13)-c1cc3c(c(=O)n1C2)COC(=O)[C@]3(O)CC [SN-38]; settings: max 0.3 µM
Procedure, shortened: as §1

AZD0156 = compound: CN(C)CCCOc1ccc(-c2ccc3ncc4c(c3c2)n(C2CCOCC2)c(=O)n4C)cn1 [AZD0156]; settings: max 3 µM
Procedure, shortened: as §1

AZD4320 = compound: CN(CC[C@H](CSC1=CC=CC=C1)NC2=C(C=C(C=C2)S(=O)(=O)NC(=O)C3=CC=C(C=C3)N4CCC(CC4)[C@H](C5=CC=CC=C5C6=CC=C(C=C6)Cl)O)S(=O)(=O)C(F)(F)F)CCO [AZD4320]; settings: max 1 µM
Procedure, shortened: as §1

Alisertib = compound: COc1cc(Nc2ncc3c(n2)-c2ccc(Cl)cc2C(c2c(F)cccc2OC)=NC3)ccc1C(=O)O [Alisertib]; settings: max 10 µM
Procedure, shortened: as §1

Gefitinib = compound: COc1cc2ncnc(Nc3ccc(F)c(Cl)c3)c2cc1OCCCN1CCOCC1 [Gefitinib]; settings: max 10 µM
Procedure, shortened: as §1

Prexasertib = compound: COc1cccc(OCCCN)c1-c1cc(Nc2cnc(C#N)cn2)n[nH]1 [Prexasertib]; settings: max 1 µM
Procedure, shortened: as §1

Doxorubicin = compound: COc1cccc2c1C(=O)c1c(O)c3c(c(O)c1C2=O)C[C@@](O)(C(=O)CO)C[C@@H]3O[C@H]1C[C@H](N)[C@H](O)[C@H](C)O1 [Doxorubicin]; settings: max 1 µM
Procedure, shortened: as §1

AZD5153 = compound: COc1nnc2ccc(N3CCC(c4ccc(OCCN5CCN(C)C(=O)[C@H]5C)cc4)CC3)nn12 [AZD5153]; settings: max 1 µM
Procedure, shortened: as §1

Lapatinib = compound: CS(=O)(=O)CCNCc1ccc(-c2ccc3ncnc(Nc4ccc(OCc5cccc(F)c5)c(Cl)c4)c3c2)o1 [Lapatinib]; settings: max 10 µM
Procedure, shortened: as §1

AZD8186 = compound: C[C@@H](Nc1cc(F)cc(F)c1)c1cc(C(=O)N(C)C)cc2c(=O)cc(N3CCOCC3)oc12 [AZD8186]; settings: max 3 µM
Procedure, shortened: as §1

Crizotinib = compound: C[C@@H](Oc1cc(-c2cnn(C3CCNCC3)c2)cnc1N)c1c(Cl)ccc(F)c1Cl [Crizotinib]; settings: max 10 µM
Procedure, shortened: as §1

Savolitinib = compound: C[C@@H](c1ccc2nccn2c1)n1nnc2ncc(-c3cnn(C)c3)nc21 [Savolitinib]; settings: max 1 µM
Procedure, shortened: as §1

AZD6738 = compound: C[C@@H]1COCCN1C2=NC(=NC(=C2)C3(CC3)[S@](=N)(=O)C)C4=C5C=CNC5=NC=C4 [AZD6738]; settings: max 10 µM
Procedure, shortened: as §1

AZD5991 = compound: Cc1c2c(nn1C)CSCc1cc(n(C)n1)CSc1cc(c3ccccc3c1)OCCCc1c(C(=O)O)n(C)c3c-2c(Cl)ccc13 [AZD5991]; settings: max 1 µM
Procedure, shortened: as §1

AZD7648 = compound: Cc1cc2ncnn2cc1Nc1ncc2c(n1)n(C1CCOCC1)c(=O)n2C [AZD7648]; settings: max 10 µM
Procedure, shortened: as §1

Taselisib = compound: Cc1nc(-c2cn3c(n2)-c2ccc(-c4cnn(C(C)(C)C(N)=O)c4)cc2OCC3)n(C(C)C)n1 [Taselisib]; settings: max 10 µM
Procedure, shortened: as §1

Selumetinib = compound: Cn1cnc2c(F)c(Nc3ccc(Br)cc3Cl)c(C(=O)NOCCO)cc21 [Selumetinib]; settings: max 10 µM
Procedure, shortened: as §1

MK-2206 = compound: NC1(c2ccc(-c3nc4ccn5c(=O)[nH]nc5c4cc3-c3ccccc3)cc2)CCC1 [MK-2206]; settings: max 10 µM
Procedure, shortened: as §1

Olaparib = compound: O=C(c1cc(Cc2n[nH]c(=O)c3ccccc23)ccc1F)N1CCN(C(=O)C2CC2)CC1 [Olaparib]; settings: max 10 µM
Procedure, shortened: as §1

Cell Line | IC50, cell viability 72 h (Capivasertib) | IC50, cell viability 72 h (AZD1775) | IC50, cell viability 72 h (Trametinib) | IC50, cell viability 72 h (Palbociclib) | IC50, cell viability 72 h (AZD1390) | IC50, cell viability 72 h (Venetoclax) | IC50, cell viability 72 h (Dasatinib) | IC50, cell viability 72 h (SG3199) | IC50, cell viability 72 h (AZD2811) | IC50, cell viability 72 h (SN-38) | IC50, cell viability 72 h (AZD0156) | IC50, cell viability 72 h (AZD4320) | IC50, cell viability 72 h (Alisertib) | IC50, cell viability 72 h (Gefitinib) | IC50, cell viability 72 h (Prexasertib) | IC50, cell viability 72 h (Doxorubicin) | IC50, cell viability 72 h (AZD5153) | IC50, cell viability 72 h (Lapatinib) | IC50, cell viability 72 h (AZD8186) | IC50, cell viability 72 h (Crizotinib) | IC50, cell viability 72 h (Savolitinib) | IC50, cell viability 72 h (AZD6738) | IC50, cell viability 72 h (AZD5991) | IC50, cell viability 72 h (AZD7648) | IC50, cell viability 72 h (Taselisib) | IC50, cell viability 72 h (Selumetinib) | IC50, cell viability 72 h (MK-2206) | IC50, cell viability 72 h (Olaparib)
HGC-27 (Gastric Carcinoma) | 0.346 µM | 2.24 µM | > 1 µM | 3.21 µM | > 0.3 µM | > 1 µM | 0.349 µM | > 0.001 µM | 0.0941 µM | 0.0146 µM | > 3 µM | > 1 µM | 0.164 µM | > 10 µM | 0.0768 µM | 0.146 µM | 0.0548 µM | 4.94 µM | 2.38 µM | 3.25 µM | > 1 µM | 2.84 µM | > 1 µM | > 10 µM | 0.0611 µM | > 10 µM | 0.501 µM | > 10 µM
NUGC-3 (Gastric Carcinoma) | > 10 µM | 0.729 µM | 0.592 µM | > 10 µM | > 0.3 µM | > 1 µM | > 2 µM | > 0.001 µM | > 1 µM | 0.00505 µM | > 3 µM | > 1 µM | > 10 µM | > 10 µM | 0.193 µM | 0.128 µM | > 1 µM | 5.31 µM | > 3 µM | > 10 µM | > 1 µM | 6.49 µM | > 1 µM | > 10 µM | 3.75 µM | > 10 µM | > 10 µM | > 10 µM
PWR-1E (Non-Cancerous) | > 10 µM | 0.525 µM | > 1 µM | > 10 µM | > 0.3 µM | > 1 µM | 0.371 µM | > 0.001 µM | 0.827 µM | 0.013 µM | > 3 µM | > 1 µM | 1.51 µM | > 10 µM | 0.0281 µM | > 1 µM | 0.343 µM | > 10 µM | > 3 µM | 8.5 µM | > 1 µM | 2.82 µM | > 1 µM | > 10 µM | 7.81 µM | > 10 µM | > 10 µM | > 10 µM
HSC-4 (Oral Cavity Carcinoma) | > 10 µM | > 3 µM | > 1 µM | > 10 µM | > 0.3 µM | > 1 µM | > 2 µM | > 0.001 µM | > 1 µM | 0.0112 µM | > 3 µM | > 1 µM | > 10 µM | > 10 µM | 0.205 µM | > 1 µM | > 1 µM | > 10 µM | > 3 µM | > 10 µM | > 1 µM | 7.28 µM | > 1 µM | > 10 µM | > 10 µM | > 10 µM | > 10 µM | > 10 µM
OE19 (Esophageal Adenocarcinoma) | > 10 µM | > 3 µM | > 1 µM | > 10 µM | > 0.3 µM | > 1 µM | > 2 µM | > 0.001 µM | 0.39 µM | > 0.3 µM | > 3 µM | > 1 µM | 0.167 µM | 1.36 µM | 0.105 µM | > 1 µM | 0.907 µM | 0.287 µM | > 3 µM | 3.81 µM | > 1 µM | 4.05 µM | > 1 µM | > 10 µM | 2.18 µM | > 10 µM |  | > 10 µM
TE-1 (Esophageal Squamous Cell Carcinoma) | > 10 µM | 2.22 µM | > 1 µM | > 10 µM | > 0.3 µM | > 1 µM | 0.393 µM | > 0.001 µM | > 1 µM | 0.157 µM | > 3 µM | > 1 µM | 6.09 µM | > 10 µM | 0.131 µM | > 1 µM | > 1 µM | > 10 µM | > 3 µM | > 10 µM | > 1 µM | > 10 µM | > 1 µM | > 10 µM | 7.85 µM | > 10 µM |  | > 10 µM
C-4-I (Cervical Carcinoma) | > 10 µM | 0.195 µM | 0.773 µM | > 10 µM | > 0.3 µM | > 1 µM | > 2 µM | > 0.001 µM | > 1 µM | 0.041 µM | > 3 µM | > 1 µM | 3.42 µM | > 10 µM | 0.0185 µM | 0.302 µM | 0.889 µM | 7.23 µM | > 3 µM | > 10 µM | > 1 µM | 2.52 µM | 0.288 µM | > 10 µM | 2.55 µM | > 10 µM |  | > 10 µM
NCI-H1915 (Non-Small Cell Lung Carcinoma) | > 10 µM | 2.87 µM | 0.0347 µM | > 10 µM | > 0.3 µM | > 1 µM | 0.567 µM | > 0.001 µM | > 1 µM | 0.0616 µM | > 3 µM | > 1 µM | 5.15 µM | > 10 µM | 0.335 µM | > 1 µM | > 1 µM | > 10 µM | > 3 µM | > 10 µM | > 1 µM | > 10 µM | > 1 µM | > 10 µM | > 10 µM | 3.91 µM |  | > 10 µM
VA-ES-BJ (Other Solid Carcinomas) | > 10 µM | 3 µM | > 1 µM | > 10 µM | > 0.3 µM | > 1 µM | > 2 µM | > 0.001 µM | > 1 µM | 0.0188 µM | > 3 µM | > 1 µM | 4.77 µM | > 10 µM | 0.118 µM | 0.464 µM | > 1 µM | > 10 µM | > 3 µM | > 10 µM | > 1 µM | 4.58 µM | > 1 µM | > 10 µM | 4.5 µM | > 10 µM |  | > 10 µM

Source: the supplement of paper PMC11061612
